Data as given in ChEMBL document CHEMBL1201862, “PubChem BioAssay data set” (2004).
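Five compound concentrations were applied to cells in 96-well plates for 48 hours; endpoints were derived by simple linear interpolation of the resulting dose-response curve. GI50: concentration for 50% inhibition of growth.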 Calls of active or inactive are those of the source. Cut-off read from the data, not from the text of the source: active = GI50 up to about 1.1 µM and inactive = higher.

What was measured:
Assay in all cases: NCI-60 cell line screen, 48 h
[1] = test system: EKVX
[2] = test system: SK-MEL-5
[3] = test system: HOP-18
[4] = test system: NCI-H226
[5] = test system: RXF 631
[6] = test system: OVCAR-4
[7] = test system: DLD-1
[8] = test system: HCC 2998
[9] = test system: 786-0
[10] = test system: A498
[11] = test system: CAKI-1
[12] = test system: HOP-62
[13] = test system: RXF 393
[14] = test system: IGROV-1
[15] = test system: ACHN
[16] = test system: LXFL 529
[17] = test system: KM-20L2
[18] = test system: OVCAR-5
[19] = test system: SK-MEL-28
[20] = test system: SW-620
[21] = test system: COLO 205
[22] = test system: SF-295
[23] = test system: SN12C
[24] = test system: M14
[25] = test system: KM12
[26] = test system: SR
[27] = test system: SF-539
[28] = test system: HOP-92
[29] = test system: MOLT-4
[30] = test system: RPMI-8226
[31] = test system: HT-29
[32] = test system: HL-60
[33] = test system: OVCAR-8
[34] = test system: U-251
[35] = test system: SNB-78
[36] = test system: OVCAR-3
[37] = test system: SK-OV-3
[38] = test system: SNB-75
[39] = test system: HCT-15
[40] = test system: HCT-116
[41] = test system: M19-MEL
[42] = test system: DMS-273
[43] = test system: NCI-H460
[44] = test system: NCI-H522
[45] = test system: UACC-62
[46] = test system: Malme-3M
[47] = test system: UO-31
[48] = test system: A549
[49] = test system: DMS-114
[50] = test system: SF-268
[51] = test system: LOX IMVI
[52] = test system: UACC-257
[53] = test system: SNB-19
[54] = test system: TK-10
[55] = test system: CCRF-CEM
[56] = test system: K562
[57] = test system: SK-MEL-2
[58] = test system: NCI-H23
[59] = test system: XF498

With `CC12CCC3(OCCO3)C(OC(=O)c3ccccc3)=C1CCC21OCCO1` (stereo not drawn) the GI50 [1] was > 100 µM (inactive), the GI50 [2] was > 100 µM (inactive) and the GI50 [3] was > 100 µM (inactive). The GI50 [4] was 4.7 µM (inactive), the GI50 [5] was > 100 µM (inactive) and the GI50 [6] was > 100 µM (inactive). The GI50 [7] was > 100 µM (inactive), the GI50 [8] was > 100 µM (inactive) and the GI50 [9] was > 100 µM (inactive). For the same compound, the GI50 [10] was > 100 µM (inactive), the GI50 [11] was > 100 µM (inactive) and the GI50 [12] was > 100 µM (inactive). For the same compound, the GI50 [13] was > 100 µM (inactive), the GI50 [14] was > 100 µM (inactive) and the GI50 [15] was > 100 µM (inactive). The GI50 [16] was > 100 µM (inactive), the GI50 [17] was > 100 µM (inactive) and the GI50 [18] was > 100 µM (inactive). For the same compound, the GI50 [19] was > 100 µM (inactive), the GI50 [20] was > 100 µM (inactive) and the GI50 [21] was 63.1 µM (inactive). The GI50 [22] was > 100 µM (inactive), the GI50 [23] was > 100 µM (inactive) and the GI50 [24] was > 100 µM (inactive). For the same compound, the GI50 [25] was > 100 µM (inactive), the GI50 [26] was > 100 µM (inactive) and the GI50 [27] was > 100 µM (inactive). The GI50 [28] was > 100 µM (inactive), the GI50 [29] was > 100 µM (inactive) and the GI50 [30] was 71.3 µM (inactive). For the same compound, the GI50 [31] was > 100 µM (inactive), the GI50 [32] was > 100 µM (inactive) and the GI50 [33] was > 100 µM (inactive). For the same compound, the GI50 [34] was > 100 µM (inactive), the GI50 [35] was > 100 µM (inactive) and the GI50 [36] was > 100 µM (inactive). The GI50 [37] was > 100 µM (inactive), the GI50 [38] was > 100 µM (inactive) and the GI50 [39] was > 100 µM. For the same compound, the GI50 [40] was > 100 µM (inactive), the GI50 [41] was > 100 µM (inactive) and the GI50 [42] was > 100 µM (inactive). The GI50 [43] was > 100 µM (inactive), the GI50 [44] was > 100 µM (inactive) and the GI50 [45] was > 100 µM (inactive). For the same compound, the GI50 [46] was > 100 µM (inactive), the GI50 [47] was > 100 µM (inactive) and the GI50 [48] was > 100 µM (inactive). For the same compound, the GI50 [49] was > 100 µM (inactive), the GI50 [50] was > 100 µM (inactive) and the GI50 [51] was > 100 µM (inactive). The GI50 [52] was > 100 µM (inactive), the GI50 [53] was > 100 µM (inactive) and the GI50 [54] was > 100 µM (inactive). The GI50 [55] was > 100 µM (inactive).
With `COc1cc2c(cc1OC(=O)CC(C)O)C1C(OC2=O)C(OC(C)=O)C=C2CCN(C)[C@H]21` (stereo partly drawn) the GI50 [1] was 65.8 µM (inactive), the GI50 [2] was 38.1 µM (inactive) and the GI50 [3] was 26.9 µM (inactive). For the same compound, the GI50 [4] was 27.5 µM (inactive), the GI50 [5] was 31 µM (inactive) and the GI50 [6] was 40.5 µM (inactive). The GI50 [7] was 69 µM (inactive), the GI50 [8] was 26.2 µM (inactive) and the GI50 [9] was 17.9 µM (inactive). For the same compound, the GI50 [10] was 17.2 µM (inactive), the GI50 [11] was 71.1 µM (inactive) and the GI50 [12] was 21.1 µM (inactive). The GI50 [14] was 21.5 µM (inactive), the GI50 [15] was 18 µM (inactive) and the GI50 [16] was 82.4 µM (inactive). For the same compound, the GI50 [17] was > 100 µM (inactive), the GI50 [18] was > 100 µM (inactive) and the GI50 [56] was > 100 µM (inactive). For the same compound, the GI50 [19] was 29 µM (inactive), the GI50 [57] was 15.9 µM (inactive) and the GI50 [20] was > 100 µM (inactive). For the same compound, the GI50 [21] was 81.3 µM (inactive), the GI50 [22] was 20.7 µM (inactive) and the GI50 [23] was 38.6 µM (inactive). For the same compound, the GI50 [24] was 68.5 µM (inactive), the GI50 [58] was 33.1 µM (inactive) and the GI50 [25] was > 100 µM (inactive). The GI50 [26] was 74.5 µM (inactive), the GI50 [27] was 21.4 µM (inactive) and the GI50 [28] was 17.3 µM (inactive). The GI50 [29] was 47.2 µM (inactive), the GI50 [31] was > 100 µM (inactive) and the GI50 [33] was 39.9 µM (inactive). For the same compound, the GI50 [34] was 24.2 µM (inactive), the GI50 [35] was 20.7 µM (inactive) and the GI50 [36] was 38.4 µM (inactive). The GI50 [37] was 15.9 µM (inactive), the GI50 [38] was 16.1 µM (inactive) and the GI50 [59] was 20.1 µM (inactive). For the same compound, the GI50 [40] was 58.7 µM (inactive), the GI50 [41] was 78.9 µM (inactive) and the GI50 [42] was 47.1 µM (inactive). The GI50 [43] was > 100 µM (inactive), the GI50 [44] was 97.7 µM (inactive) and the GI50 [45] was 31.1 µM (inactive). The GI50 [47] was 47 µM (inactive), the GI50 [48] was 64.3 µM (inactive) and the GI50 [50] was 46.3 µM (inactive). For the same compound, the GI50 [51] was 40.4 µM (inactive), the GI50 [52] was > 100 µM (inactive) and the GI50 [53] was 20.7 µM (inactive). For the same compound, the GI50 [54] was 26.3 µM (inactive) and the GI50 [55] was > 100 µM (inactive).
